This note sets out measurements from a melting point compilation (Tetko et al.; mined from patent text by program, amines drawn as free bases though some values may be those of a salt).

Usually melting point stands for the temperature, or range, at which the solid turns liquid. Regarding `NS(=O)(=O)c1cncc(-c2cn(-c3cc(C(F)(F)F)cc(-c4ccc(C(F)(F)F)cc4)n3)cn2)c1`, the melting point is above 250 °C.

The compound `O=C(OCC1CC1)c1ncn2c1[C@@H]1CCN1C(=O)c1cc(F)ccc1-2` gave a melting point of 171 to 172 °C.

Compound `CCNc1c([N+](=O)[O-])cc2c(=O)c(C(=O)O)cn(-c3cc(N)c(F)cc3F)c2c1C` returned a melting point of 250 to 254 °C.

For `CCOC(=O)CC(C)c1ccc(C2COc3c(C)c(C)c(NC(=O)CC(C)(C)C)c(C)c32)cc1` (stereo not drawn), the melting point lay within 100 to 101 °C.

As to `CCOC(=O)NNc1cc(C)c(-c2cccc(C#N)c2)nn1`, the melting point fell in the range of 189 to 190 °C.

The compound `O=C(F)OC12CC3CC(CC(C3)C1)C2` displayed a melting point of 32 to 33 °C.

Take `ON=C(c1ccccc1)c1cccc2nc(N[C@@H]3CCc4ccccc43)ccc12`: the melting point turned out to be 176 °C.

Take `CN(C)C(=O)Cn1c(-c2cccc(C(F)(F)F)c2)nc2cccnc21`: the melting point lay within 136 to 138 °C.

Compound `O=C(N1CCC(c2ccncc2)CC1)N1CCN(S(=O)(=O)c2ccc(Cl)cc2)CC1` gave a melting point of 234 to 235 °C.

With `CC(C)(C)[N+]([O-])=Cc1c(O)cc(O)cc1O`, the melting point was found to be 190 °C.

Consider `CCOC(=O)C1CCCCC1(c1ccc(O)c(C(C)(C)C)c1)c1ccc(O)c(C(C)(C)C)c1` (stereo not drawn), for which the melting point is 86 °C.

Compound `Cc1cccc(NC(=O)c2ccc(C(=O)N3Cc4cccn4Cc4ccccc43)cc2)c1C` returned a melting point of 239 to 240 °C.

On to `Cc1ccc(C(=O)Nc2ccc(-n3nc(C(F)(F)F)cc3C(F)(F)F)cc2)c(Cl)n1`, for which the melting point was 155 to 156 °C.

`COc1ccc2[nH]c3c([N+](=O)[O-])cc([N+](=O)[O-])c(Cl)c3c(=O)c2c1` came in with a melting point of 253 to 254 °C.

As for `CC(C)(C)COC(=O)Cc1cccc2c(=O)cc(C3=CCCCC3)oc12`, the melting point lay within 138 to 139 °C.

Compound `CNC(=O)N(C)c1nnc(SCc2ccccc2)s1` displayed a melting point of 139 to 142 °C.

`CCOc1ccc(OC)c2c1CCC([N+](=O)[O-])=C2` had a melting point of 90 to 92 °C.

`CC(=O)C(C)Oc1nn(C(C)C(C)=O)c(-c2ccc(S(C)(=O)=O)cc2)c1-c1ccc(F)cc1` (stereo not drawn): the melting point fell in the range of 127 to 129 °C.

The compound `Cc1nc(-c2ccc3c(c2)CCCC3)c(C(=O)O)o1` showed a melting point of 183 to 185 °C.

For the compound `COc1cc(O)cc(Cl)c1`, the melting point fell in the range of 94 to 96 °C.

In turn, `COCCOCOc1ccc(-c2nnc(S)o2)cc1OCOCCOC` yielded a melting point of 84 °C.

Take `COc1cc2c(cc1OCc1ccccc1)C=C(C(=O)O)CCC2`: the melting point is 172 to 173 °C.

Compound `COc1cccc(-c2cc3c(Nc4cccc(Cl)c4)ncnc3[nH]2)c1` registered a melting point of 262 to 263 °C.

On to `CC(=O)OC(C(Oc1ccccc1)n1ccnc1)C(C)(C)C` (stereo not drawn), for which the melting point is 114 to 121 °C.

`CC(CF)c1ccc(NC(=O)N(C)C)cc1` (stereo not drawn): the melting point was in the range of 145 to 146 °C.

`COc1ccc(-c2nc(C#N)oc2-c2ccc(OC)cc2)cc1` returned a melting point of 110 to 112 °C.

Regarding `COC(=O)c1cccc(-c2cn(C)cc(-c3ccc(C)cc3)c2=O)c1`, the melting point was in the range of 85 to 88 °C.

`O=C1CNc2ccccc2N1c1ccc(Cl)cc1` registered a melting point of 196 to 199 °C.

As to `COC(=O)C(=Cc1cc(OC)cc(OC)c1)c1ccc(Oc2ccc(CBr)cc2)cc1`, the melting point was 79 to 81 °C.

On to `CCOc1ccc(C=C2N=C(C)OC2=O)cc1OCC`, for which the melting point was 117 to 119 °C.

`N#Cc1ccc(N(Cc2ccc(OS(N)(=O)=O)cc2)n2cnnc2)cc1-c1ccc(F)cc1` gave a melting point of 197 to 199 °C.

Consider `Fc1cccc(N=C2SCCN2C(=S)Nc2cccc(F)c2)c1`, for which the melting point lay in the range of 108 to 109 °C.

As to `CC(C)c1cccc(NC(=N)Nc2cccc(C(C)C)c2)c1`, the melting point was 118 to 119 °C.

For the compound `CCOC(=O)c1[nH]c(CC)nc1C(C)(C)O`, the melting point lay within 181 to 184 °C.

Consider `CCCC(=O)c1cnc2c(C(O)CN3CCOCC3)cccc2c1Nc1ccccc1C` (stereo not drawn), for which the melting point lay within 135 to 137 °C.

For the compound `CC12CCC(C(=NO)C1=NN)C(C)(C)O2` (stereo not drawn), the melting point was in the range of 138 to 142 °C.

In turn, `CCCOc1cccc(C2(c3cccs3)N=C(N)N(C)C2=O)c1` (stereo not drawn) gave a melting point of 79 to 81 °C.

Consider `CC(C)(C)OC(=O)N1Cc2ccc(COc3cccc4c3CN(C3CCC(=O)NC3=O)C4=O)cc2C1` (stereo not drawn), for which the melting point was 178 to 180 °C.

The compound `COCc1ccn2nc(S(=O)(=O)Nc3c(C)cccc3Cl)nc2n1` registered a melting point of 196 °C.

As for `CCOC(=O)c1n[nH]c(C(=O)OCC)c1C(=O)c1ccc(Cl)cc1[N+](=O)[O-]`, the melting point turned out to be 168 °C.

Consider `CC(C)OC(=S)SSCCSSC(=S)OC(C)C`, for which the melting point was 66 °C.

`CC(C)n1c(CCC2C[C@@H](O)CC(=O)O2)c(-c2ccc(F)cc2)c(-c2ccccc2)c1C(=O)Nc1ccccc1` (stereo partly drawn) returned a melting point of 128 to 129 °C.

For the compound `c1cc2ccsc2cn1`, the melting point is below 50 °C.

Take `COC(=O)[C@@H]1C[C@H](N)C(=O)[C@H]2[C@@]1(C)CC[C@H]1C(=O)O[C@H](c3ccoc3)C[C@]21C`: the melting point fell in the range of 237 to 240 °C.

As to `O=C(N=CN1CCCCC1)C(O)(C(=O)N=CN1CCCCC1)c1ccc(Cl)c(Cl)c1` (stereo not drawn), the melting point came out at 195 °C.

`C=CC(=O)OCCCCCCCCOc1ccc(C(=O)O)cc1` yielded a melting point of 157 to 158 °C.

The compound `COc1ccc2c(c1)C(=NOCCN(C)C)c1c-2c(N2CCNCC2)nc2ccccc12` returned a melting point of 84 to 86 °C.

Consider `CCCCCCCCCCCCCCCCS(=O)(=O)N[C@H]1CCCNC(=O)C1`, for which the melting point was in the range of 100 to 101 °C.

Consider `CCc1noc(NS(=O)(=O)c2ccccc2)c1C`, for which the melting point is 94 to 95 °C.

For `CC(C)(C)OC(=O)N(CC(=O)O)Cc1ccccc1`, the melting point fell in the range of 94 to 97 °C.

In turn, `CCOC(=O)COc1cccc2c1OCC(Br)C2=O` (stereo not drawn) had a melting point of 92 to 93 °C.

On to `NC(=O)C1CN(CCCCN(c2ccc(F)cc2)c2ccc(F)cc2)CCN1` (stereo not drawn), for which the melting point is 67.4 °C.

Regarding `Cc1ccc2nc(-c3ccc4oc(=O)n(C)c4c3)c(C)n2c1`, the melting point was in the range of 247 to 249 °C.

For `Cc1cc2c(cc1C)CCC(C(=O)O)=C2`, the melting point lay in the range of 222 to 223 °C.

As for `Cc1ccc(O)c(-c2nc(N(C)C)sc2C(c2ccc(N(C)C)cc2)c2ccc(N(C)C)cc2)c1`, the melting point lay within 189 to 191 °C.

Consider `Cc1cc2cccc(N)c2cn1`, for which the melting point is 175 °C.

In turn, `CON=C(C(=O)O)c1nsc(NC(=O)OCc2ccccc2)n1` displayed a melting point of 138 to 142 °C.

In turn, `CCN(CC)CCNC(=O)c1cnc(-c2ccccc2)nc1S` displayed a melting point of 178 to 180 °C.

In turn, `O=c1oc(-c2ccc(C(F)(F)F)cc2)nn1Cc1cc(Cl)ccc1O` returned a melting point of 144 to 145 °C.

As for `CC(C)=CC(=O)Nc1ccc(F)cc1CCN1CCN(c2nsc3ccccc23)CC1`, the melting point amounted to 175 °C.

`O=C1CC(c2ccc(O)cc2)Oc2cc(O)c(C3OC(CO)C(O)C(O)C3O)c(O)c21` (stereo not drawn) gave a melting point of 195 to 196 °C.

Turning to `COC(=O)C1CC(C#N)(c2ccc(OC)c3oc(C(C)C)nc23)CCC1=O` (stereo not drawn), the melting point is 150 °C.

As for `O=C1/C(=C/c2c[nH]c3ncc(Cl)cc23)N=C(Oc2ccccc2)N1c1ccccc1`, the melting point was 287 °C.
